Source: ChEMBL document CHEMBL5614405 (J Med Chem, 2024)
Active and inactive are the calls of the source. The calls are words filed in the database; no cut-off is given here.

Assays:
[1] = Toxicity in New Zealand rabbit assessed as appearance of conjunctival congestion by measuring ocular irritation score at 0.03 % TOP administration on left eye measured after 6 days by draize eye irritation test; assay type: tissue-based, Oryctolagus cuniculus; conditions: in vivo, topical_or_ocular, 144 h, time 6 day
[2] = Toxicity in New Zealand rabbit assessed as appearance of conjunctival congestion by measuring ocular irritation score at 0.03 % TOP administration on left eye measured after 1 day by draize eye irritation test; assay type: tissue-based, Oryctolagus cuniculus; conditions: in vivo, topical_or_ocular, 24 h
Mus musculus [3] = experiment: Anti-glaucoma activity in magnetic microbead induced occlusion C57BL/6J mouse model assessed as increase in retinal ganglion cell density at 441.27 uM,TOP administrated on right eye thrice a day for 21 days by immunofluorescence based confocal microscopic analysis relative to control; assay type: functional, organism-based; conditions: time 21.0 day
[4] = Unbound drug concentration in New Zealand rabbit aqueous humor of eyeball at 1.55 mM TOP administration on eye measured upto 6 hr by LC-MS/MS analysis; assay type: ADME, tissue-based, Oryctolagus cuniculus; conditions: in vivo, topical_or_ocular, 1550 µM
[5] = Drug metabolism in New Zealand rabbit cornea assessed as 3-((nitrooxy)methyl)benzoic acid metabolite formation at 1.55 mM TOP administration on eye measured upto 6 hr by LC-MS/MS analysis; assay type: ADME, tissue-based, Oryctolagus cuniculus; conditions: in vivo, topical_or_ocular, 1550 µM
Mus musculus [6] = experiment: Anti-glaucoma activity in magnetic microbead induced occlusion C57BL/6J mouse model assessed as increase in retinal ganglion cell population at 441.27 uM,TOP administrated on right eye thrice a day for 21 days by immunofluorescence based confocal microscopic analysis relative to Netarsudil; assay type: functional, organism-based; conditions: time 21.0 day
[7] = Toxicity in New Zealand rabbit assessed as appearance of conjunctival congestion by measuring ocular irritation score at 0.03 % TOP administration on left eye measured after 2 days by draize eye irritation test; assay type: tissue-based, Oryctolagus cuniculus; conditions: in vivo, topical_or_ocular, 48 h, time 2 day
Mus musculus [8] = experiment: Anti-glaucoma activity in magnetic microbead induced occlusion C57BL/6J mouse model assessed as reduction in intraocular pressure at 441.27 uM,TOP administration on right eye measured upto 8 hr by tonometric analysis relative to Netarsudil; assay type: functional, organism-based
[9] = Drug metabolism in New Zealand rabbit aqueous humor of eyeball assessed as 3-(hydroxymethyl)benzoic acid metabolite formation at 1.55 mM TOP administration on eye measured after 4 hrs by LC-MS/MS analysis; assay type: ADME, Oryctolagus cuniculus; conditions: in vivo, topical_or_ocular, 1550 µM
[10] = target: T1, Rho-associated protein kinase 2 (Homo sapiens, UniProt O75116); experiment: Inhibition of ROCK2 (unknown origin) incubated for 60 mins in presence of ATP by mobility shift assay
Target sequence in this assay (O75116 whole entry): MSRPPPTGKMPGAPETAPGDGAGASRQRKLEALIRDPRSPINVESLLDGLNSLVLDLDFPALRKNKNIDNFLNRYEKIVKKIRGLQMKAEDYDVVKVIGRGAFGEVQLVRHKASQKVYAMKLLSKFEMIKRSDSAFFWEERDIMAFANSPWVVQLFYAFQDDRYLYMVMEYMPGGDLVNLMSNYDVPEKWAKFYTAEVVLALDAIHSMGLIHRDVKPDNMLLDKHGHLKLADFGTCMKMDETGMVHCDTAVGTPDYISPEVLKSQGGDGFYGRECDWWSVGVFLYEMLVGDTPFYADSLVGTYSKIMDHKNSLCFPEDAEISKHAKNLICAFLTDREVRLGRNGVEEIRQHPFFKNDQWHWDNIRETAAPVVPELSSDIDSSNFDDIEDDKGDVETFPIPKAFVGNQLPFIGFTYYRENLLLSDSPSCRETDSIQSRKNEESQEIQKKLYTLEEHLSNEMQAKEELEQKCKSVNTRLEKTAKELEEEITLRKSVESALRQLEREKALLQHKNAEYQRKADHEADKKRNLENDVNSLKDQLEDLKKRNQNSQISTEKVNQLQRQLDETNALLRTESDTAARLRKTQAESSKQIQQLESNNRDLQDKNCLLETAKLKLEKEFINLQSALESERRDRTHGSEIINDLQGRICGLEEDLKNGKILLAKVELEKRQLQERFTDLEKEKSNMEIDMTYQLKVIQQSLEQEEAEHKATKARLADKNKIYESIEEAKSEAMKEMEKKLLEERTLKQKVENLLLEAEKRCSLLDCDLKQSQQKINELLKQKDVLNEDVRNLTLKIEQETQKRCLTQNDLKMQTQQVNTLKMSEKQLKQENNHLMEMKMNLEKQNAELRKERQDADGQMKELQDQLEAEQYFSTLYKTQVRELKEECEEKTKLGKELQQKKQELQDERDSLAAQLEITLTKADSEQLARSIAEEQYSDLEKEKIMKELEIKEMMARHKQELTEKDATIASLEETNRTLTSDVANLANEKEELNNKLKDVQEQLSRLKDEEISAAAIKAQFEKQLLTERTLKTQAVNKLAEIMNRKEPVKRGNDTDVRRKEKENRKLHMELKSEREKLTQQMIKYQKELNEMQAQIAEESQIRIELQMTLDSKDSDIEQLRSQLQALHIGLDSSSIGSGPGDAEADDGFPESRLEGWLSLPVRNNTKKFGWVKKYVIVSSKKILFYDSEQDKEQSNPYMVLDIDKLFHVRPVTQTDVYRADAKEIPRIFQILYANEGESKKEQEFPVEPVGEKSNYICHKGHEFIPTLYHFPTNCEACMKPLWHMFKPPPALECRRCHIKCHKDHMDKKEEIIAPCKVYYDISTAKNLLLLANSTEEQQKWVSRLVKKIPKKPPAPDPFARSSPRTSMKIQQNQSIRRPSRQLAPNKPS

[11] = Drug metabolism in New Zealand rabbit cornea assessed as 3-(hydroxymethyl)benzoic acid metabolite formation at 1.55 mM TOP administration on eye measured after 4 hr by LC-MS/MS analysis; assay type: ADME, tissue-based, Oryctolagus cuniculus; conditions: in vivo, topical_or_ocular, 1550 µM
[12] = Toxicity in New Zealand rabbit assessed as appearance of conjunctival congestion by measuring ocular irritation score at 0.03 % TOP administration on left eye measured after 3 days by draize eye irritation test; assay type: tissue-based, Oryctolagus cuniculus; conditions: in vivo, topical_or_ocular, 72 h, time 3 day
[13] = Toxicity in chicken embryo chorioallantoic membrane assessed as irritation score at 1.55 mM measured after 5 mins in presence of PTIO by microscopic analysis; assay type: tissue-based, Gallus gallus; conditions: in vivo, 1550 µM
Oryctolagus cuniculus [14] = experiment: Anti-glaucoma activity in methylcellulose-induced acute intraocular hypertensive New Zealand rabbit model assessed as reduction in intraocular pressure at 441.27 uM,TOP administration on conjunctival sac measured after 3 hrs relative to Netarsudil; assay type: functional, organism-based
[15] = Drug metabolism in New Zealand rabbit aqueous humor of eyeball assessed as 3-(hydroxymethyl)benzoic acid metabolite formation at 1.55 mM TOP administration on eye measured after 4 to 6 hrs by LC-MS/MS analysis; assay type: ADME, Oryctolagus cuniculus; conditions: in vivo, topical_or_ocular, 1550 µM, time 4-6 hrs
[16] = Drug metabolism in New Zealand rabbit aqueous humor of eyeball assessed as (S)-3-amino-2-(4-(hydroxymethyl)phenyl)-N-(isoquinolin-6-yl)propanamide Dimethanesulfonate metabolite formation at 1.55 mM TOP administration on eye measured after 4 to 6 hrs by LC-MS/MS analysis; assay type: ADME, tissue-based, Oryctolagus cuniculus; conditions: in vivo, topical_or_ocular, 1550 µM, time 4-6 hrs
[17] = Drug metabolism in New Zealand rabbit aqueous humor of eyeball assessed as 3-(hydroxymethyl)benzoic acid metabolite formation at 1.55 mM TOP administration on eye measured after 4 hr by LC-MS/MS analysis; assay type: ADME, tissue-based, Oryctolagus cuniculus; conditions: in vivo, topical_or_ocular, 1550 µM
[18] = Drug metabolism in New Zealand rabbit cornea assessed as 3-(hydroxymethyl)benzoic acid metabolite formation at 1.55 mM TOP administration on eye measured upto 1 hr by LC-MS/MS analysis; assay type: ADME, tissue-based, Oryctolagus cuniculus; conditions: in vivo, topical_or_ocular, 1550 µM
[19] = Toxicity in New Zealand rabbit assessed as appearance of conjunctival congestion by measuring ocular irritation score at 0.03 % TOP administration on left eye measured after 4 days by draize eye irritation test; assay type: tissue-based, Oryctolagus cuniculus; conditions: in vivo, topical_or_ocular, 96 h, time 4 day
[20] = target: T1, Rho-associated protein kinase 2; experiment: Inhibition of ROCK2 (unknown origin) assessed as fold change at 3 uM incubated for 60 mins in presence of ATP by mobility shift assay
Target sequence in this assay (O75116 whole entry, looked up): as the sequence (O75116 whole entry) above

[21] = Drug metabolism in New Zealand rabbit cornea assessed as (S)-3-amino-2-(4-(hydroxymethyl)phenyl)-N-(isoquinolin-6-yl)propanamide Dimethanesulfonate metabolite formation at 1.55 mM TOP administration on eye measured upto 6 hrs by LC-MS/MS analysis; assay type: ADME, tissue-based, Oryctolagus cuniculus; conditions: in vivo, topical_or_ocular, 1550 µM
[22] = Drug metabolism in New Zealand rabbit aqueous humor of eyeball assessed as (S)-3-amino-2-(4-(hydroxymethyl)phenyl)-N-(isoquinolin-6-yl)propanamide Dimethanesulfonate metabolite formation at 1.55 mM TOP administration on eye measured after 4 hrs by LC-MS/MS analysis; assay type: ADME, Oryctolagus cuniculus; conditions: in vivo, topical_or_ocular, 1550 µM
[23] = Toxicity in chicken embryo chorioallantoic membrane assessed as irritation score at 1.55 mM measured after 5 mins in presence of NS 2028 by microscopic analysis; assay type: tissue-based, Gallus gallus; conditions: in vivo, 1550 µM
[24] = Drug metabolism in New Zealand rabbit aqueous humor of eyeball assessed as 3-((nitrooxy)methyl)benzoic acid metabolite formation at 1.55 mM TOP administration on eye measured upto 6 hrs by LC-MS/MS analysis; assay type: ADME, tissue-based, Oryctolagus cuniculus; conditions: in vivo, topical_or_ocular, 1550 µM
[25] = Drug metabolism in New Zealand rabbit cornea assessed as 3-(hydroxymethyl)benzoic acid metabolite formation at 1.55 mM TOP administration on eye measured upto 3 hr by LC-MS/MS analysis; assay type: ADME, tissue-based, Oryctolagus cuniculus; conditions: in vivo, topical_or_ocular, 1550 µM
[26] = Toxicity in New Zealand rabbit assessed as appearance of conjunctival congestion by measuring ocular irritation score at 0.03 % TOP administration on left eye measured after 7 days by draize eye irritation test; assay type: tissue-based, Oryctolagus cuniculus; conditions: in vivo, topical_or_ocular, 168 h, time 7 day
Mus musculus [27] = experiment: Anti-glaucoma activity in magnetic microbead induced occlusion C57BL/6J mouse model assessed as reduction in intraocular pressure at 441.27 uM,TOP administration on right eye measured after 1 hr by tonometric analysis; assay type: functional, organism-based
[28] = Unbound drug concentration in New Zealand rabbit cornea at 1.55 mM TOP administration on eye measured upto 3 hr by LC-MS/MS analysis; assay type: ADME, tissue-based, Oryctolagus cuniculus; conditions: in vivo, topical_or_ocular, 1550 µM
Oryctolagus cuniculus [29] = experiment: Anti-glaucoma activity in methylcellulose-induced acute intraocular hypertensive New Zealand rabbit model assessed as reduction in intraocular pressure at 441.27 uM,TOP administration on conjunctival sac measured for 4 to 24 hrs relative to Netarsudil; assay type: functional, organism-based; conditions: time 4-24 hrs
[30] = Toxicity in New Zealand rabbit assessed as appearance of conjunctival congestion by measuring ocular irritation score at 0.03 % TOP administration on left eye measured after 5 days by draize eye irritation test; assay type: tissue-based, Oryctolagus cuniculus; conditions: in vivo, topical_or_ocular, 120 h, time 5 day
[31] = Toxicity in chicken embryo chorioallantoic membrane assessed as irritation score at 1.55 mM measured after 5 mins by microscopic analysis relative to Netarsudil; assay type: tissue-based, Gallus gallus; conditions: in vivo, 1550 µM
[32] = target: T2, Rho-associated protein kinase 1 (Homo sapiens, UniProt Q13464); experiment: Inhibition of ROCK1 (unknown origin) incubated for 10 mins in presence of ATP by mobility shift assay
Target sequence in this assay (Q13464 whole entry): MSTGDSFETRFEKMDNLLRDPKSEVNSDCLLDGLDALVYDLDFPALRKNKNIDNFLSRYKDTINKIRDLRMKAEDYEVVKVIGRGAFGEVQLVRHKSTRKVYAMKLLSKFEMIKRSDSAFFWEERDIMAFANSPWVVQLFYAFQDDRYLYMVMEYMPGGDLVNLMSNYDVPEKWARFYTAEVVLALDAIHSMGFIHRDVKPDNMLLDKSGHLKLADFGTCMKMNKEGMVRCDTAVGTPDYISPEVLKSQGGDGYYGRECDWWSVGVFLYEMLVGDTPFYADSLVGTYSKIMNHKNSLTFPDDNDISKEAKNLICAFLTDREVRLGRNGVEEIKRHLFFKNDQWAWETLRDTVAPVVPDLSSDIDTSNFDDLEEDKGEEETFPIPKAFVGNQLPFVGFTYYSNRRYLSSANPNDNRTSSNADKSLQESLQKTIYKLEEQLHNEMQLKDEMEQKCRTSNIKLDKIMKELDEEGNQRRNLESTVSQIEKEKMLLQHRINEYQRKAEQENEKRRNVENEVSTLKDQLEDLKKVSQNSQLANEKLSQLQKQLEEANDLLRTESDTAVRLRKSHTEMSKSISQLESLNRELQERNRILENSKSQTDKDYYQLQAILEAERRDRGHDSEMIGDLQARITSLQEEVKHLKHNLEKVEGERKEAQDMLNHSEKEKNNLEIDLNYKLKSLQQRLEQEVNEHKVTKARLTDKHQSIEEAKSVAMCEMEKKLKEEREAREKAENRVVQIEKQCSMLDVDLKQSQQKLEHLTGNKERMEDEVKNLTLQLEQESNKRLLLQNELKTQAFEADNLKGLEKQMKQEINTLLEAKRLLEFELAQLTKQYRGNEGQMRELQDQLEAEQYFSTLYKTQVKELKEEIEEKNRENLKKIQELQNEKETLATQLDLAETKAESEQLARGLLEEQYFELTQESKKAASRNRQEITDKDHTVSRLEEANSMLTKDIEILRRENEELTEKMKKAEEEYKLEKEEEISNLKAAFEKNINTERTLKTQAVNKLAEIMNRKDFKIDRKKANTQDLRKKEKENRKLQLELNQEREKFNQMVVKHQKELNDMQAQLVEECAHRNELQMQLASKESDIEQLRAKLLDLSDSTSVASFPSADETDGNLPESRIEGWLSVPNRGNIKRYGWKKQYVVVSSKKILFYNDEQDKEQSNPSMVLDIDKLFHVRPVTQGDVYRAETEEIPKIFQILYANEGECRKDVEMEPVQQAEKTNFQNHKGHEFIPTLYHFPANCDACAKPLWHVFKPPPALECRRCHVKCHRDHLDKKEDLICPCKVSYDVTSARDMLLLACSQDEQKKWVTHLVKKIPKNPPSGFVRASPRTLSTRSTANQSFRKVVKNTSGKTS

[33] = Unbound drug concentration in New Zealand rabbit cornea at 1.55 mM TOP administration on eye measured upto 1 hr by LC-MS/MS analysis; assay type: ADME, tissue-based, Oryctolagus cuniculus; conditions: in vivo, topical_or_ocular, 1550 µM
Oryctolagus cuniculus [34] = experiment: Anti-glaucoma activity in methylcellulose-induced acute intraocular hypertensive New Zealand rabbit model assessed as reduction in intraocular pressure at 1.55 mM,TOP administration on conjunctival sac measured upto 24 hrs relative to (R)-4-(3-amino-1-(isoquinolin-6-ylamino)-1-oxopropan-2-yl)benzyl 3-((nitrooxy)methyl)benzoate Dimethanesulfonate; assay type: functional, organism-based
Mus musculus [35] = experiment: Anti-glaucoma activity in magnetic microbead induced occlusion C57BL/6J mouse model assessed as increase in retinal ganglion cell population at 441.27 uM,TOP administrated on right eye thrice a day for 21 days by immunofluorescence based confocal microscopic analysis; assay type: functional, organism-based; conditions: time 21.0 day
[36] = target: T2, Rho-associated protein kinase 1; experiment: Inhibition of ROCK1 (unknown origin) assessed as fold change at 3 uM incubated for 10 mins in presence of ATP by mobility shift assay relative to control
Target sequence in this assay (Q13464 2-1354 limits assumed): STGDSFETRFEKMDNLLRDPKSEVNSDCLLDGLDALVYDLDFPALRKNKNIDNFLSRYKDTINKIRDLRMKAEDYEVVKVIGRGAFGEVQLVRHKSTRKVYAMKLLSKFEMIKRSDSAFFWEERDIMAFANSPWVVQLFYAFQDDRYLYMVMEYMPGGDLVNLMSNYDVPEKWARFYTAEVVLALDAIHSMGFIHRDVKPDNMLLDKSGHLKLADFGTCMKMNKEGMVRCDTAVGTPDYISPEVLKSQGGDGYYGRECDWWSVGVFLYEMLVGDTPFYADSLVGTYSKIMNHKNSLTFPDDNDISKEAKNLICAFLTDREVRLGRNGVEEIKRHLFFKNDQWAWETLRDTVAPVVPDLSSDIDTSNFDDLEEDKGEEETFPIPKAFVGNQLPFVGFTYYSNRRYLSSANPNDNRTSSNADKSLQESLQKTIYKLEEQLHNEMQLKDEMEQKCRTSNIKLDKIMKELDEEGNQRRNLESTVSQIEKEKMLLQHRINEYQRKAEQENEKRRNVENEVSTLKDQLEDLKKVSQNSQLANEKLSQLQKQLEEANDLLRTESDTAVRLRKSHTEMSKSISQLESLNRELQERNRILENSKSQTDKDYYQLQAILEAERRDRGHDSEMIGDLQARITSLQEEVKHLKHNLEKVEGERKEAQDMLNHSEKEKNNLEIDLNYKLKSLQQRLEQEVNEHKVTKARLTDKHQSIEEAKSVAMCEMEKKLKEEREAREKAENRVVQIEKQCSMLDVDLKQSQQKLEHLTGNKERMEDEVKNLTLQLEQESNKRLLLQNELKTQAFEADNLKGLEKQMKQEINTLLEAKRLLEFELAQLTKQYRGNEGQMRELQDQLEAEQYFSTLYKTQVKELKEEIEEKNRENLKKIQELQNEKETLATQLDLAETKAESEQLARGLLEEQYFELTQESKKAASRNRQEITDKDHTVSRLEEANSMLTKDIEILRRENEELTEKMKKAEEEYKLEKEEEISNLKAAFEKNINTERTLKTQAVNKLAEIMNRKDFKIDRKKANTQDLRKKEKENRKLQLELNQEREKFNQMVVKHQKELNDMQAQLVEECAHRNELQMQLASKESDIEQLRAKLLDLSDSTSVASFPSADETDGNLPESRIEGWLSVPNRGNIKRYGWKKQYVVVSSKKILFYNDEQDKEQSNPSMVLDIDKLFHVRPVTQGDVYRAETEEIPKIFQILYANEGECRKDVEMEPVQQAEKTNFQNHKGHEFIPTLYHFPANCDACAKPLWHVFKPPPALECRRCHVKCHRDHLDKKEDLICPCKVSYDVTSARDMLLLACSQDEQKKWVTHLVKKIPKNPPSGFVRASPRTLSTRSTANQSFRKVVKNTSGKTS

Oryctolagus cuniculus [37] = experiment: Anti-glaucoma activity in methylcellulose-induced acute intraocular hypertensive New Zealand rabbit model assessed as reduction in intraocular pressure at 1.55 mM,TOP administration on conjunctival sac measured upto 24 hrs relative to Netarsudil; assay type: functional, organism-based
Oryctolagus cuniculus [38] = experiment: Anti-glaucoma activity in methylcellulose-induced acute intraocular hypertensive New Zealand rabbit model assessed as reduction in intraocular pressure at 1.55 mM,TOP administration on conjunctival sac measured for 1 to 4 hrs; assay type: functional, organism-based; conditions: time 1-4 hrs

CS(=O)(=O)O.CS(=O)(=O)O.NC[C@@H](C(=O)Nc1ccc2cnccc2c1)c1ccc(COC(=O)c2cccc(CO[N+](=O)[O-])c2)cc1
Activity [1]: 1 | Activity [2]: 1.67 | Activity (Mus musculus [3]): Active | Drug uptake(free) [4]: Active | Drug metabolism [5]: Metabolite_Detected | Activity (Mus musculus [6]): Active | Activity [7]: 1 | Activity (Mus musculus [8]): Active | Drug metabolism [9]: 62.95 ng/mL | IC50 [10]: 0.66 nM | Drug metabolism [11]: 114.73 ng/mg | Activity [12]: 1.67 | Activity [13]: Toxic | Activity (Oryctolagus cuniculus [14]): Active | Drug metabolism [15]: Metabolite_Notdetected | Drug metabolism [16]: Metabolite_Notdetected | Drug metabolism [17]: 60.87 ng/mL | Drug metabolism [18]: 371.53 ng/g | Activity [19]: 1.67 | fold change (FC) [20]: 38 | Drug metabolism [21]: Metabolite_Detected | Drug metabolism [22]: 0.96 ng/mL | Activity [23]: Toxic | Drug metabolism [24]: Metabolite_Detected | Drug metabolism [25]: Metabolite_Notdetected | Activity [26]: 0.67 | Activity (Mus musculus [27]): Active | Drug uptake(free) [28]: Not Active | Activity (Oryctolagus cuniculus [29]): inactive | Activity [30]: 0.67 | Activity [31]: Toxic | IC50 [32]: 1.26 nM | Drug uptake(free) [33]: 14.12 ng/g | Activity (Oryctolagus cuniculus [34]): Active | Activity (Mus musculus [35]): Active | fold change (FC) [36]: 28 | Activity (Oryctolagus cuniculus [37]): Active

NCC(C(=O)Nc1ccc2cnccc2c1)c1ccc(COC(=O)CCCCCO[N+](=O)[O-])cc1 (stereo unspecified)
IC50 [10]: 5.27 nM | IC50 [32]: 22.5 nM

CS(=O)(=O)O.CS(=O)(=O)O.NCC(C(=O)Nc1ccc2cnccc2c1)c1ccc(COC(=O)CCCO[N+](=O)[O-])cc1 (stereo unspecified)
IC50 [10]: 2.51 nM | Activity [31]: Toxic | IC50 [32]: 4.94 nM | Activity (Oryctolagus cuniculus [37]): Active

NCC(C(=O)Nc1ccc2cnccc2c1)c1ccc(COC(=O)CCC(=O)O[C@@H]2CO[C@@H]3[C@H]2OC[C@@H]3O[N+](=O)[O-])cc1 (stereo partly specified)
IC50 [10]: 8.56 nM | IC50 [32]: 28.6 nM

CS(=O)(=O)O.CS(=O)(=O)O.NCC(C(=O)Nc1ccc2cnccc2c1)c1ccc(COC(=O)c2ccc(CO[N+](=O)[O-])cc2)cc1 (stereo unspecified)
IC50 [10]: 0.83 nM | Activity [31]: Toxic | Activity (Oryctolagus cuniculus [38]): Active | IC50 [32]: 1.48 nM

NCC(C(=O)Nc1ccc2cnccc2c1)c1ccc(COC(=O)CCCCO[N+](=O)[O-])cc1 (stereo unspecified)
IC50 [10]: 5.15 nM | IC50 [32]: 29 nM
